# Patent publication US20230203043A1, “NOVEL IMIDAZOPYRAZINE DERIVATIVES” (Hoffmann-La Roche Inc., priority 2020, published 2023)
# Counter-ions that a name gives are not always drawn.
# Test system: Acinetobacter baumannii ATCC17961
# Test: Antimicrobial susceptibility testing: 90% growth inhibitory concentration (IC90) determination in Iso-Sensitest broth, OD600 growth
# Type: cell-based
# Details: Acinetobacter baumannii, ATCC17961, 16 h, read-out: A. baumannii ATCC 17961 IC90 (uM), strain ATCC 17961, OD600 growth over 16 h
# Procedure, shortened: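 Twofold compound dilutions (e.g. 50 to 0.097 μM final) in Iso-Sensitest broth with ~5×10^(5) CFU/ml, 35±2 °C. OD600 read every 20 min over 16 h; IC90 from growth inhibition during logarithmic phase.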
row,SMILES,IC90 [µM]
1,"O=C(c1ccc(Nc2nccn3c(-c4c[nH]nc4C(F)(F)F)cnc23)cc1Cl)N1CCN(C(=O)[C@H]2CCNC[C@H]2O)CC1 [Example 451, [2-chloro-4-[[3-[3-(trifluoromethyl)-1H-pyrazol-4-yl]imidazo[1,2-a]pyrazin-8-yl]amino]phenyl]-[4-[(3S,4S)-3-hydroxypiperidine-4-carbonyl]piperazin-1-yl]methanone formate]",0.365
2,"O=C(c1ccc(Nc2nccn3c(-c4c[nH]nc4C(F)(F)F)cnc23)cc1Cl)N1CCN(C(=O)[C@H]2C[C@H](O)CN2)CC1 [Example 452, [2-chloro-4-[[3-[3-(trifluoromethyl)-1H-pyrazol-4-yl]imidazo[1,2-a]pyrazin-8-yl]amino]phenyl]-[4-[(2R,4S)-4-hydroxypyrrolidine-2-carbonyl]piperazin-1-yl]methanone formate]",0.401
3,"O=C(c1ccc(Nc2nccn3c(-c4c[nH]nc4C(F)(F)F)cnc23)cc1Cl)N1CCN(C(=O)[C@H]2CCNC[C@@H]2O)CC1 [Example 453, [2-chloro-4-[[3-[3-(trifluoromethyl)-1H-pyrazol-4-yl]imidazo[1,2-a]pyrazin-8-yl]amino]phenyl]-[4-[(3R,4S)-3-hydroxypiperidine-4-carbonyl]piperazin-1-yl]methanone formate]",0.586
4,"O=C(c1ccc(Nc2nccn3c(-c4c[nH]nc4C(F)(F)F)cnc23)cc1Cl)N1CCN(C(=O)[C@@H]2CCNC[C@H]2O)CC1 [Example 454, [2-chloro-4-[[3-[3-(trifluoromethyl)-1H-pyrazol-4-yl]imidazo[1,2-a]pyrazin-8-yl]amino]phenyl]-[4-[(3S,4R)-3-hydroxypiperidine-4-carbonyl]piperazin-1-yl]methanone formate]",0.778
5,"Cc1cc(Nc2nccn3c(-c4cn(C)nc4C(F)(F)F)cnc23)ccc1C(=O)NCCCNC(=O)[C@@H]1C[C@@H](O)CN1 [Example 455, formic acid; (2S,4R)-4-hydroxy-N-[3-[[2-methyl-4-[[3-[1-methyl-3-(trifluoromethyl)pyrazol-4-yl]imidazo[1,2-a]pyrazin-8-yl]amino]benzoyl]amino]propyl]pyrrolidine-2-carboxamide]",1.21
6,"Cc1cc(Nc2nccn3c(-c4cn(C)nc4C(F)(F)F)cnc23)ccc1C(=O)NCCNC(=O)[C@@H]1C[C@@H](O)CN1 [Example 456, formic acid; (2S,4R)-4-hydroxy-N-[2-[[2-methyl-4-[[3-[1-methyl-3-(trifluoromethyl)pyrazol-4-yl]imidazo[1,2-a]pyrazin-8-yl]amino]benzoyl]amino]ethyl]pyrrolidine-2-carboxamide]",2.74
7,"Cc1cc(Nc2nccn3c(-c4c[nH]nc4C(F)(F)F)cnc23)ccc1C(=O)N1CCN(C(=O)C2(O)CCNCC2)CC1 [Example 460, formic acid; [4-(4-hydroxypiperidine-4-carbonyl)piperazin-1-yl]-[2-methyl-4-[[3-[3-(trifluoromethyl)-1H-pyrazol-4-yl]imidazo[1,2-a]pyrazin-8-yl]amino]phenyl]methanone]",0.896
8,"Cc1cc(Nc2nccn3c(-c4c[nH]nc4C(F)(F)F)cnc23)ccc1C(=O)N1CCN(C(=O)[C@@H]2CCNC[C@@H]2O)CC1 [Example 461, formic acid; [4-[(3R,4R)-3-hydroxypiperidine-4-carbonyl]piperazin-1-yl]-[2-methyl-4-[[3-[3-(trifluoromethyl)-1H-pyrazol-4-yl]imidazo[1,2-a]pyrazin-8-yl]amino]phenyl]methanone]",0.926
9,"Cc1cc(Nc2nccn3c(-c4c[nH]nc4C(F)(F)F)cnc23)ccc1C(=O)N1CCN(C(=O)[C@@H]2C[C@](C)(O)CN2)CC1 [Example 462, formic acid; [4-[(2S,4S)-4-hydroxy-4-methylpyrrolidine-2-carbonyl]piperazin-1-yl]-[2-methyl-4-[[3-[3-(trifluoromethyl)-1H-pyrazol-4-yl]imidazo[1,2-a]pyrazin-8-yl]amino]phenyl]methanone]",0.964
10,"Cc1cc(Nc2nccn3c(-c4c[nH]nc4C(F)(F)F)cnc23)ccc1C(=O)N1CCN(C(=O)[C@H]2CCNC[C@H]2O)CC1 [Example 463, formic acid; [4-[(3S,4S)-3-hydroxypiperidine-4-carbonyl]piperazin-1-yl]-[2-methyl-4-[[3-[3-(trifluoromethyl)-1H-pyrazol-4-yl]imidazo[1,2-a]pyrazin-8-yl]amino]phenyl]methanone]",0.998
11,"Cc1cc(Nc2nccn3c(-c4c[nH]nc4C(F)(F)F)cnc23)ccc1C(=O)N1CCN(C(=O)[C@@H]2CCNC[C@H]2O)CC1 [Example 464, formic acid; [4-[(3S,4R)-3-hydroxypiperidine-4-carbonyl]piperazin-1-yl]-[2-methyl-4-[[3-[3-(trifluoromethyl)-1H-pyrazol-4-yl]imidazo[1,2-a]pyrazin-8-yl]amino]phenyl]methanone]",1.26
12,"Cc1cc(Nc2nccn3c(-c4c[nH]nc4C(F)(F)F)cnc23)ccc1C(=O)N1CCN(C(=O)[C@H]2CCNC[C@@H]2O)CC1 [Example 465, formic acid; [4-[(3R,4S)-3-hydroxypiperidine-4-carbonyl]piperazin-1-yl]-[2-methyl-4-[[3-[3-(trifluoromethyl)-1H-pyrazol-4-yl]imidazo[1,2-a]pyrazin-8-yl]amino]phenyl]methanone]",1.62
13,"Cc1cc(Nc2nccn3c(-c4cn(C)nc4C(F)(F)F)cnc23)ccc1C(=O)N1CCN(C(=O)N[C@@H]2CNC[C@H]2O)CC1 [Example 469, formic acid; N-[(3R,4R)-4-hydroxypyrrolidin-3-yl]-4-[2-methyl-4-[[3-[1-methyl-3-(trifluoromethyl)pyrazol-4-yl]imidazo[1,2-a]pyrazin-8-yl]amino]benzoyl]piperazine-1-carboxamide]",0.705
14,"Cc1cc(Nc2nccn3c(-c4cn(C)nc4C(F)(F)F)cnc23)ccc1C(=O)N1CCN(C(=O)N[C@H]2CNC[C@@H]2O)CC1 [Example 470, formic acid; N-[(3S,4S)-4-hydroxypyrrolidin-3-yl]-4-[2-methyl-4-[[3-[1-methyl-3-(trifluoromethyl)pyrazol-4-yl]imidazo[1,2-a]pyrazin-8-yl]amino]benzoyl]piperazine-1-carboxamide]",0.793
15,"Cc1cc(Nc2nccn3c(-c4cn(C)nc4C(F)(F)F)cnc23)ccc1C(=O)N1CCN(C(=O)C2(O)CCNCC2)CC1 [Example 471, formic acid; [4-(4-hydroxypiperidine-4-carbonyl)piperazin-1-yl]-[2-methyl-4-[[3-[1-methyl-3-(trifluoromethyl)pyrazol-4-yl]imidazo[1,2-a]pyrazin-8-yl]amino]phenyl]methanone]",1.1
16,"Cc1cc(Nc2nccn3c(-c4cn(C)nc4C(F)(F)F)cnc23)ccc1C(=O)N1CCN(C(=O)[C@@H]2C[C@](C)(O)CN2)CC1 [Example 472, formic acid; [4-[(2S,4S)-4-hydroxy-4-methylpyrrolidine-2-carbonyl]piperazin-1-yl]-[2-methyl-4-[[3-[1-methyl-3-(trifluoromethyl)pyrazol-4-yl]imidazo[1,2-a]pyrazin-8-yl]amino]phenyl]methanone]",1.24
17,"Cc1cc(Nc2nccn3c(-c4cn(C)nc4C(F)(F)F)cnc23)ccc1C(=O)N1CCN(C(=O)[C@@H]2C[C@@H](O)CN2)CC1 [Example 473, formic acid; [4-[(2S,4R)-4-hydroxypyrrolidine-2-carbonyl]piperazin-1-yl]-[2-methyl-4-[[3-[1-methyl-3-(trifluoromethyl)pyrazol-4-yl]imidazo[1,2-a]pyrazin-8-yl]amino]phenyl]methanone]",1.29
18,"Cc1cc(Nc2nccn3c(-c4cn(C)nc4C(F)(F)F)cnc23)ccc1C(=O)N1CCN(C(=O)[C@@H]2CCNC[C@@H]2O)CC1 [Example 474, formic acid; [4-[(3R,4R)-3-hydroxypiperidine-4-carbonyl]piperazin-1-yl]-[2-methyl-4-[[3-[1-methyl-3-(trifluoromethyl)pyrazol-4-yl]imidazo[1,2-a]pyrazin-8-yl]amino]phenyl]methanone]",1.34
19,"Cc1cc(Nc2nccn3c(-c4cn(C)nc4C(F)(F)F)cnc23)ccc1C(=O)N1CCN(C(=O)[C@H]2CCNC[C@H]2O)CC1 [Example 475, formic acid; [4-[(3S,4S)-3-hydroxypiperidine-4-carbonyl]piperazin-1-yl]-[2-methyl-4-[[3-[1-methyl-3-(trifluoromethyl)pyrazol-4-yl]imidazo[1,2-a]pyrazin-8-yl]amino]phenyl]methanone]",1.64

# Same assay, conditions: read-out: A. baumannii ATCC 17961 IC90, strain ATCC 17961, OD600 growth over 16 h
row,SMILES,IC90 [µM]
1,"Cc1cc(Nc2nccn3c(-c4c[nH]nc4C(F)(F)F)cnc23)ccc1C(=O)N1CCN(C(=O)[C@@H]2C[C@@H](O)CN2)CC1 [Example 459, formic acid; [4-[(2S,4R)-4-hydroxypyrrolidine-2-carbonyl)piperazin-1-yl]-[2-methyl-4-[[3-[3-(trifluoromethyl)-1H-pyrazol-4-yl]imidazo[1,2-a]pyrazin-8-yl]amino]phenyl]methanone]",0.762

# Same assay, conditions: strain ATCC 17961, OD600 growth over 16 h, read-out: A. baumannii ATCC 17961 IC90
row,SMILES,IC90 [µM]
1,"Cc1cc(Nc2nccn3c(-c4c[nH]nc4C(F)(F)F)cnc23)ccc1C(=O)N1CCN(C(=O)N[C@@H]2CNC[C@H]2O)CC1 [Example 457, formic acid, N-[(3R,4R)-4-hydroxypyrrolidin-3-yl]-4-[2-methyl-4-[[3-[3-(trifluoromethyl)-1H-pyrazol-4-yl]imidazo[1,2-a]pyrazin-8-yl]amino]benzoyl]piperazine-1-carboxamide]",0.442
2,"Cc1cc(Nc2nccn3c(-c4c[nH]nc4C(F)(F)F)cnc23)ccc1C(=O)N1CCN(C(=O)N[C@H]2CNC[C@@H]2O)CC1 [Example 458, formic acid, N-[(3S,4S)-4-hydroxyppyrrolidin-3-yl]-4-[2-methyl-4-[[3-[3-(trifluoromethyl)-1H-pyrazol-4-yl]imidazo[1,2-a]pyrazin-8-yl]amino]benzoyl]piperazine-1-carboxamide]",0.551
